Experimental findings from patent US11370798B2 (Vertex Pharmaceuticals Incorporated, priority 2012, dated 2022) are described below.

The subject of the test is HCT116 colorectal cancer cells. The test can be described thus: Cisplatin sensitization assay (96 h cell viability MTS).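 Further: Test-compound concentration that lowers the Cisplatin IC50 by a set fold.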 In kind it is cell-based. To be noted: compound and Cisplatin added simultaneously, Cisplatin sensitization value. On the procedure: Compounds can be screened for their ability to sensitize HCT116 colorectal cancer cells to Cisplatin using a 96 h cell viability (MTS) assay. […] Compounds and Cisplatin are then both added simultaneously to the cell media in 2-fold serial dilutions from a top final concentration of 10 μM as a full matrix of concentrations in a final cell volume of 200 μl, and the cells are then incubated at 37° C. in 5% CO2. After 96 h, 40 μl of MTS reagent (Promega G358a) is added to each well and the cells are incubated for 1 h at 37° C. in 5% CO2.
Compounds with a Cisplatin sensitization value of <0.02 μM are marked with “+++.” Compounds with a Cisplatin sensitization value>0.02 μM but <0.2 μM are marked with “++.” Compounds with a Cisplatin sensitization value>0.2 μM but <5 μM are marked with “+.”
As to `Nc1nn2cc(F)cnc2c1C(=O)Nc1cncc(F)c1N1CCS(=O)(=O)CC1` [I-N-250, 2-amino-N-(4-(1,1-dioxidothiomorpholino)-5-fluoropyridin-3-yl)-6-fluoropyrazolo[1,5-a]pyrimidine-3-carboxamide], the “Cisplatin Sensitization Assay” value is listed as “++ (Cisplatin sensitization value>0.02 μM but <0.2 μM)”. For the compound `N#CCc1cnc2c(C(=O)Nc3cnccc3-c3ccccc3)c(N)nn2c1` [I-C-6, 2-amino-6-(cyanomethyl)-N-(4-phenylpyridin-3-yl)pyrazolo[1,5-a]pyrimidine-3-carboxamide], the “Cisplatin Sensitization Assay” value was “+++ (Cisplatin sensitization value of <0.02 μM)”. As to `Nc1nn2cc(F)cnc2c1C(=O)Nc1cncc(F)c1N1CCNCC1` [I-N-118, 2-amino-6-fluoro-N-(5-fluoro-4-(piperazin-1-yl)pyridin-3-yl)pyrazolo[1,5-a]pyrimidine-3-carboxamide], the “Cisplatin Sensitization Assay” value is listed as “+++ (Cisplatin sensitization value of <0.02 μM)”. With `COC1(C)CN(C(=O)C2CCN(c3c(F)cncc3NC(=O)c3c(N)nn4cc(F)cnc34)CC2)C1` [I-G-75, 2-amino-6-fluoro-N-(5-fluoro-4-(4-(3-methoxy-3-methylazetidine-1-carbonyl)piperidin-1-yl)pyridin-3-yl)pyrazolo[1,5-a]pyrimidine-3-carboxamide] the entry was “+++ (Cisplatin sensitization value of <0.02 μM)”; with `Nc1nn2cc(F)cnc2c1C(=O)Nc1cnccc1-c1ccc(C(=O)N2CCC(N3CCC3)CC2)nc1` [I-C-54, 2-amino-N-(6-(4-(azetidin-1-yl)piperidine-1-carbonyl)-[3,4′-bipyridin]-3′-yl)-6-fluoropyrazolo[1,5-a]pyrimidine-3-carboxamide], “+++ (Cisplatin sensitization value of <0.02 μM)”. In the case of `Nc1nn2cc(F)cnc2c1C(=O)Nc1cncc(Cl)c1N1CCNCC1` [I-N-126, 2-amino-N-(5-chloro-4-(piperazin-1-yl)pyridin-3-yl)-6-fluoropyrazolo[1,5-a]pyrimidine-3-carboxamide], the “Cisplatin Sensitization Assay” value was “+++ (Cisplatin sensitization value of <0.02 μM)”.

Turning to `Nc1nn2cc(F)cnc2c1C(=O)Nc1cncc(F)c1N1CCCCC1` [I-N-270, 2-amino-6-fluoro-N-(5-fluoro-4-(piperidin-1-yl)pyridin-3-yl)pyrazolo[1,5-a]pyrimidine-3-carboxamide], the “Cisplatin Sensitization Assay” value is on record as “+++ (Cisplatin sensitization value of <0.02 μM)”.

Consider `CN1CCC(Oc2c(F)cncc2NC(=O)c2c(N)nn3cc(F)cnc23)CC1` [I-O-89, 2-amino-6-fluoro-N-(5-fluoro-4-((1-methylpiperidin-4-yl)oxy)pyridin-3-yl)pyrazolo[1,5-a]pyrimidine-3-carboxamide], for which the “Cisplatin Sensitization Assay” value is on record as “++ (Cisplatin sensitization value>0.02 μM but <0.2 μM)”.

For `Nc1nn2cc(F)cnc2c1C(=O)Nc1cnccc1N1CCN2C(=O)OCC2C1` (stereo not shown) [I-N-238, 2-amino-6-fluoro-N-(4-(3-oxotetrahydro-1H-oxazolo[3,4-a]pyrazin-7(3H)-yl)pyridin-3-yl)pyrazolo[1,5-a]pyrimidine-3-carboxamide], the “Cisplatin Sensitization Assay” value is on record as “++ (Cisplatin sensitization value>0.02 μM but <0.2 μM)”.

In the case of `Nc1nn2cc(Cl)cnc2c1C(=O)Nc1cnccc1O[C@@H]1CCCNC1` [I-O-81, (R)-2-amino-6-chloro-N-(4-(piperidin-3-yloxy)pyridin-3-yl)pyrazolo[1,5-a]pyrimidine-3-carboxamide], the “Cisplatin Sensitization Assay” value is given as “++ (Cisplatin sensitization value>0.02 μM but <0.2 μM)”.

For `Nc1nn2cc(F)cnc2c1C(=O)Nc1cnccc1C1CCOC1` (stereo not shown) [I-C-75, 2-amino-6-fluoro-N-(4-(tetrahydrofuran-3-yl)pyridin-3-yl)pyrazolo[1,5-a]pyrimidine-3-carboxamide], the “Cisplatin Sensitization Assay” value is “++ (Cisplatin sensitization value>0.02 μM but <0.2 μM)”. Regarding `CN(C)CCCOc1ccncc1NC(=O)c1c(N)nn2cc(Cl)cnc12` [I-O-52, 2-amino-6-chloro-N-(4-(3-(dimethylamino)propoxy)pyridin-3-yl)pyrazolo[1,5-a]pyrimidine-3-carboxamide], the “Cisplatin Sensitization Assay” value is reported as “+ (Cisplatin sensitization value>0.2 μM but <5 μM)”. Consider `COCCn1cncc1-c1ccncc1NC(=O)c1c(N)nn2cc(F)cnc12` [I-C-83, 2-amino-6-fluoro-N-(4-(1-(2-methoxyethyl)-1H-imidazol-5-yl)pyridin-3-yl)pyrazolo[1,5-a]pyrimidine-3-carboxamide], for which the “Cisplatin Sensitization Assay” value is given as “++ (Cisplatin sensitization value>0.02 μM but <0.2 μM)”.

With `Nc1nn2cc(F)cnc2c1C(=O)Nc1cnccc1-n1ccnc1C(F)(F)F` [I-N-219, 2-amino-6-fluoro-N-(4-(2-(trifluoromethyl)-1H-imidazol-1-yl)pyridin-3-yl)pyrazolo[1,5-a]pyrimidine-3-carboxamide], the “Cisplatin Sensitization Assay” value was “+++ (Cisplatin sensitization value of <0.02 μM)”. With `CN(C)C(=O)C1CCN(c2c(F)cncc2NC(=O)c2c(N)nn3cc(F)cnc23)CC1` [I-G-29, 2-amino-N-(4-(4-(dimethylcarbamoyl)piperidin-1-yl)-5-fluoropyridin-3-yl)-6-fluoropyrazolo[1,5-a]pyrimidine-3-carboxamide], the “Cisplatin Sensitization Assay” value is given as “+++ (Cisplatin sensitization value of <0.02 μM)”. With `N#CCc1cnc2c(C(=O)Nc3cnccc3O[C@@H]3CCOC3)c(N)nn2c1` [I-O-31, (R)-2-amino-6-(cyanomethyl)-N-(4-((tetrahydrofuran-3-yl)oxy)pyridin-3-yl)pyrazolo[1,5-a]pyrimidine-3-carboxamide], the “Cisplatin Sensitization Assay” value is “+++ (Cisplatin sensitization value of <0.02 μM)”. Consider `CN1CCN(C(=O)N2CCN(c3c(F)cncc3NC(=O)c3c(N)nn4cc(F)cnc34)CC2)CC1` [I-N-140, 2-amino-6-fluoro-N-(5-fluoro-4-(4-(4-methylpiperazine-1-carbonyl)piperazin-1-yl)pyridin-3-yl)pyrazolo[1,5-a]pyrimidine-3-carboxamide], for which the “Cisplatin Sensitization Assay” value is given as “+++ (Cisplatin sensitization value of <0.02 μM)”. Turning to `Nc1nn2cc(Cl)cnc2c1C(=O)Nc1cnccc1O[C@H]1C[C@@]2(CCN2)C1` [I-O-79, N-(4-((4r,6s)-1-azaspiro[3.3]heptan-6-yloxy)pyridin-3-yl)-2-amino-6-chloropyrazolo[1,5-a]pyrimidine-3-carboxamide], the “Cisplatin Sensitization Assay” value is “++ (Cisplatin sensitization value>0.02 μM but <0.2 μM)”. Regarding `N#CCc1cnc2c(C(=O)Nc3cnccc3OC3CCNCC3)c(N)nn2c1` [I-O-84, 2-amino-6-(cyanomethyl)-N-(4-(piperidin-4-yloxy)pyridin-3-yl)pyrazolo[1,5-a]pyrimidine-3-carboxamide], the “Cisplatin Sensitization Assay” value is given as “++ (Cisplatin sensitization value>0.02 μM but <0.2 μM)”. On to `Nc1nn2cc(Cl)cnc2c1C(=O)Nc1cnccc1OCCCO` [I-O-53, 2-amino-6-chloro-N-(4-(3-hydroxypropoxy)pyridin-3-yl)pyrazolo[1,5-a]pyrimidine-3-carboxamide], for which the “Cisplatin Sensitization Assay” value is recorded as “+++ (Cisplatin sensitization value of <0.02 μM)”. As for `Cc1cncnc1-c1ccncc1NC(=O)c1c(N)nn2cc(F)cnc12` [I-C-67, 2-amino-6-fluoro-N-(4-(5-methylpyrimidin-4-yl)pyridin-3-yl)pyrazolo[1,5-a]pyrimidine-3-carboxamide], the “Cisplatin Sensitization Assay” value is recorded as “++ (Cisplatin sensitization value>0.02 μM but <0.2 μM)”.

Regarding `CC(C)(C#N)c1cnc2c(C(=O)Nc3cncc(F)c3N3CCN(C4COC4)CC3)c(N)nn2c1` [I-N-144], the “Cisplatin Sensitization Assay” value was “+++ (Cisplatin sensitization value of <0.02 μM)”.

Take `Nc1nn2cc(F)cnc2c1C(=O)Nc1cncc(F)c1N1CCC(C(=O)N2CCN3CCCC3C2)CC1` (stereo not shown) [I-G-10, 2-amino-6-fluoro-N-(5-fluoro-4-(4-(octahydropyrrolo[1,2-a]pyrazine-2-carbonyl)piperidin-1-yl)pyridin-3-yl)pyrazolo[1,5-a]pyrimidine-3-carboxamide]: the “Cisplatin Sensitization Assay” value is on record as “+++ (Cisplatin sensitization value of <0.02 μM)”. Take `Cc1nccnc1-c1ccncc1NC(=O)c1c(N)nn2cc(F)cnc12` [I-C-62, 2-amino-6-fluoro-N-(4-(3-methylpyrazin-2-yl)pyridin-3-yl)pyrazolo[1,5-a]pyrimidine-3-carboxamide]: the “Cisplatin Sensitization Assay” value was “++ (Cisplatin sensitization value>0.02 μM but <0.2 μM)”.

`CN1CCC(C(=O)N2CCN(c3c(F)cncc3NC(=O)c3c(N)nn4cc(F)cnc34)CC2)C1` (stereo not shown) [I-N-156, 2-amino-6-fluoro-N-(5-fluoro-4-(4-(1-methylpyrrolidine-3-carbonyl)piperazin-1-yl)pyridin-3-yl)pyrazolo[1,5-a]pyrimidine-3-carboxamide]: the “Cisplatin Sensitization Assay” value is given as “+++ (Cisplatin sensitization value of <0.02 μM)”. For the compound `Nc1nn2cc(F)cnc2c1C(=O)Nc1cnccc1O[C@H]1CCCNC1` [I-O-85, (S)-2-amino-6-fluoro-N-(4-(piperidin-3-yloxy)pyridin-3-yl)pyrazolo[1,5-a]pyrimidine-3-carboxamide], the “Cisplatin Sensitization Assay” value is listed as “+++ (Cisplatin sensitization value of <0.02 μM)”. With `Nc1nn2cc(F)cnc2c1C(=O)Nc1cncc(F)c1N1CCC(OCCN2CCCC2)CC1` [I-N-167, 2-amino-6-fluoro-N-(5-fluoro-4-(4-(2-(pyrrolidin-1-yl)ethoxy)piperidin-1-yl)pyridin-3-yl)pyrazolo[1,5-a]pyrimidine-3-carboxamide] the entry was “+++ (Cisplatin sensitization value of <0.02 μM)”. As for `Nc1nn2cc(F)cnc2c1C(=O)Nc1cnccc1OC1CCC(C(=O)O)CC1` (stereo not shown) [I-O-8, 4-((3-(2-amino-6-fluoropyrazolo[1,5-a]pyrimidine-3-carboxamido)pyridin-4-yl)oxy)cyclohexanecarboxylic acid], the “Cisplatin Sensitization Assay” value is given as “+ (Cisplatin sensitization value>0.2 μM but <5 μM)”.
